Assay results taken from patent US7799915B2, “Anilino-pyrimidine analogs” (Wyeth LLC, priority 2004, dated 2010).

System: IκBα in Hela cells treated with TNFα
Assay: Western Analysis of IκBα
Format: cell-based
Details: Hela cells treated with compounds for 30 min before addition of TNFα (10 μg/ml), harvested after one hour; mouse anti-IκBα antibody
Procedure: Hela cells are plated at 6-well plate for 24 hours and treated with compounds for 30 min before the addition of TNFα (10 μg/ml). After one hour, Hela cells are harvested in MPER reagent (Pierce, Rockford, Ill.) containing 400 mM NaCl. Protein from all samples is quantified by the Bradford method. Cell lysates containing 30 μg of protein are electrophoresed on a 12% SDS-PAGE gel and transferred to a PVDF membrane using a Bio Rad liquid transfer apparatus. The PVDF membrane is incubated in TBST (TBS with 0.1% Tween-20) with 3% milk for 15 minutes before the addition of the first antibody, mouse anti-IκBα (Santa Cruz). After overnight incubation, the PVDF membrane is washed 3 times with TBST and incubated with secondary antibodies coupled with horseradish peroxidase (Transduction Labs) for one hour. The PVDF membrane is then washed 3 times with TBST and protein is detected using an enhanced chemiluminescence detection system (Pierce).

SMILES	result in Western analysis of IκBα
NS(=O)(=O)c1ccc(Nc2nccc(-c3ccc(Cl)s3)n2)cc1 [compound 4]	positive result
NS(=O)(=O)c1ccc(Nc2nccc(-c3ccc(C#Cc4ccccn4)s3)n2)cc1 [compound 35]	slightly positive result
NS(=O)(=O)c1ccc(Nc2nccc(-c3ccc(/C=C/CO)cc3)n2)cc1 [compound 272]	positive result
COc1ccc(-c2ccnc(Nc3ccc(S(=O)(=O)NCCCN(C)C)c(Cl)c3)n2)cc1F [compound 173]	positive result
O=S(=O)(NCCCO)c1ccc(Nc2nccc(-c3ccc(C(F)(F)F)cc3)n2)cc1 [compound 68]	positive result
COc1ccc(-c2ccnc(Nc3ccc(S(=O)(=O)NCCN(C)C)c(C(F)(F)F)c3)n2)cc1F [compound 167]	slightly positive result
